Test systems include MALME-3M melanoma; T-47D breast; IGROV1 ovarian; NCI-H23 lung; KM12 colon; SR leukemia; HOP-92 NSCLC; BT-549 breast; SNB-78 CNS; KM20L2 colon; DMS 114 small cell lung; M19-MEL melanoma; 786-0 renal.
What all share (assay): NCI-60 cell line screen, 48 h

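Protocol summary: plate cells (96-well), add compound at 5 concentrations, incubate 48 h, interpolate endpoints linearly. GI50 marks 50% less growth. Definition used: TGI = concentration required for complete inhibition of growth.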

With `O=C(Nc1ccc(-n2cc(-c3ccncc3)c(-c3ccc(O)c(Cl)c3)n2)cc1)Nc1ccc(Cl)c(C(F)(F)F)c1`, the GI50 with MALME-3M melanoma was 3.04 µM; in the assay with T-47D breast it was 8.61 µM; with IGROV1 ovarian, 4.42 µM; with NCI-H23 lung it was 3.56 µM; in the assay with KM12 colon, 3.8 µM; in the assay with SR leukemia it was 3.96 µM. Further, in the assay with HOP-92 NSCLC, the GI50 was 1.82 µM. Also, the TGI amounted to 17.1 µM in the assay with MALME-3M melanoma; 64.1 µM in the assay with T-47D breast; 30.3 µM with IGROV1 ovarian; 22 µM in the assay with NCI-H23 lung; 12.8 µM with KM12 colon; 21.6 µM in the assay with SR leukemia. This molecule also had a TGI with HOP-92 NSCLC of 5 µM.
In the case of `C/C(=N\NC(=S)NCCCCNC(=S)N/N=C(\C)c1ccccn1)c1ccccc1`, the TGI in the assay with MALME-3M melanoma was greater than 52.4 µM; in the assay with IGROV1 ovarian, greater than 28.8 µM; with NCI-H23 lung, 25.3 µM; in the assay with BT-549 breast, 29.5 µM; with KM12 colon, greater than 100 µM; in the assay on SR leukemia, 2.17 µM. In addition, in the assay with HOP-92 NSCLC, the TGI was greater than 57.3 µM.
For the molecule `CC(C)C(=O)CC(c1ccc(Cl)cc1)N1N=C(C(C)C)CC1c1ccc(Cl)cc1` (centres undefined), the TGI with SNB-78 CNS, with MALME-3M melanoma, with IGROV1 ovarian, in the assay with NCI-H23 lung, in the assay on KM12 colon and with KM20L2 colon was greater than 100 µM throughout. Further, the TGI is 28.2 µM with SR leukemia, greater than 100 µM in the assay on DMS 114 small cell lung, greater than 55.6 µM with M19-MEL melanoma and greater than 100 µM in the assay with HOP-92 NSCLC.
Turning to `CC(C)CC(=O)NC(C(=O)NC(C(=O)NC(CC(C)C)C(O)CC(=O)NC(C)C(=O)NC(CC(C)C)C(O)CC(=O)O)C(C)C)C(C)C` (centres undefined), the TGI in the assay with MALME-3M melanoma, in the assay on IGROV1 ovarian, in the assay on NCI-H23 lung, in the assay with BT-549 breast, in the assay with 786-0 renal and in the assay with KM12 colon was greater than 100 µM each time. In addition, the TGI with SR leukemia and with HOP-92 NSCLC was greater than 100 µM each time.
Turning to `CC(=O)O[C@@H]1C(=O)N(c2ccccc2)[C@@H]1c1cc2ccccc2c2ccccc12`, the TGI in the assay on MALME-3M melanoma is 88.9 µM; in the assay with T-47D breast, 85.7 µM; with IGROV1 ovarian it was 61.9 µM; in the assay with NCI-H23 lung, greater than 100 µM; with 786-0 renal, greater than 100 µM; with KM12 colon it was greater than 100 µM. In addition, the TGI in the assay with SR leukemia was 52.9 µM; in the assay on HOP-92 NSCLC it was greater than 100 µM.
Take `N#CCCN(CCC#N)c1ccc(/C=C(\NC(=O)c2cc([N+](=O)[O-])ccc2Cl)C(=O)Nc2ccccc2)cc1`: the TGI with SNB-78 CNS, in the assay on IGROV1 ovarian, in the assay on NCI-H23 lung, with KM12 colon, with KM20L2 colon and with SR leukemia was greater than 100 µM throughout. Also, the TGI with DMS 114 small cell lung, in the assay on M19-MEL melanoma and in the assay on HOP-92 NSCLC was greater than 100 µM in each case.
Turning to `Cn1ccc(C(=O)NCCN(CCNC(=O)c2ccn(C)c(=O)c2O)CCNC(=O)c2ccn(C)c(=O)c2O)c(O)c1=O`, the TGI in the assay with MALME-3M melanoma, in the assay with T-47D breast, in the assay with IGROV1 ovarian, in the assay with NCI-H23 lung, with BT-549 breast and in the assay on KM12 colon was greater than 100 µM each time. Also, the TGI in the assay on SR leukemia and with HOP-92 NSCLC was greater than 100 µM throughout.
Consider `CCCn1cc2c(SC)nc(SC)nc2n1`, for which the TGI in the assay with SNB-78 CNS, in the assay on MALME-3M melanoma, with IGROV1 ovarian, in the assay on NCI-H23 lung, in the assay on KM12 colon and in the assay with SR leukemia was greater than 100 µM each time. In addition, the TGI in the assay with DMS 114 small cell lung and in the assay on HOP-92 NSCLC was greater than 100 µM in each case.
`O=C(O)CCc1nc2ccccc2[nH]1`: the TGI with MALME-3M melanoma, in the assay with T-47D breast, with IGROV1 ovarian, with NCI-H23 lung, in the assay on BT-549 breast and with 786-0 renal was greater than 100 µM in each case. The TGI in the assay with KM12 colon, in the assay on SR leukemia and with HOP-92 NSCLC was greater than 100 µM each time.
For the molecule `CCOC(=O)C(Cc1cn(C(C)=O)c2ccccc12)P(=O)(OCC)OCC` (centres undefined), the TGI with T-47D breast, with IGROV1 ovarian, in the assay with NCI-H23 lung, in the assay with SR leukemia and in the assay on HOP-92 NSCLC was greater than 100 µM in each case.
As to `O=C(O)c1cc(=O)c2c(OCC(O)COc3cccc4oc(C(=O)O)cc(=O)c34)cccc2o1`, the TGI is greater than 100 µM in the assay on MALME-3M melanoma; greater than 100 µM with T-47D breast; greater than 94.9 µM with IGROV1 ovarian; greater than 100 µM in the assay with NCI-H23 lung; greater than 100 µM with BT-549 breast; greater than 100 µM in the assay on 786-0 renal. Also, the TGI with KM12 colon was greater than 100 µM; in the assay on SR leukemia, greater than 100 µM; in the assay with HOP-92 NSCLC it was greater than 93.8 µM.
Turning to `Cn1ncc2c(Nc3cccc(Cl)c3)nc(Nc3cccc(Cl)c3)nc21`, the TGI with MALME-3M melanoma is 48 µM; in the assay with T-47D breast, 37 µM; with IGROV1 ovarian, greater than 66.6 µM; with NCI-H23 lung, 57.1 µM; with BT-549 breast it was 59 µM; in the assay with 786-0 renal it was 4.84 µM. The TGI was greater than 42.2 µM in the assay with KM12 colon and 44.7 µM in the assay with HOP-92 NSCLC.
For `COc1ccc(C(O)(c2ccccc2)c2nccc3ccccc23)cc1` (centres undefined), the TGI in the assay with MALME-3M melanoma was 7.27 µM; in the assay with T-47D breast it was greater than 100 µM; with IGROV1 ovarian, greater than 100 µM; with NCI-H23 lung, greater than 100 µM; in the assay on BT-549 breast, greater than 100 µM; with 786-0 renal it was greater than 100 µM. In addition, the TGI in the assay on KM12 colon and in the assay on SR leukemia was greater than 100 µM each time.
With `c1ccc(C(NC2=NCCO2)c2ccccc2)cc1`, the TGI in the assay with MALME-3M melanoma, in the assay on T-47D breast, in the assay on IGROV1 ovarian, in the assay on NCI-H23 lung, in the assay on KM12 colon and in the assay with SR leukemia was greater than 10 µM each time.
In the case of `C/C(=N\NC(=S)N(C)C)c1nc2ncccc2[nH]1`, the TGI in the assay with MALME-3M melanoma was 6.68 µM; in the assay on T-47D breast, 14.7 µM; in the assay on IGROV1 ovarian, 70 µM; with BT-549 breast it was 6.48 µM; in the assay on SR leukemia it was greater than 100 µM; in the assay on HOP-92 NSCLC it was 0.928 µM.
For the molecule `NNC(=O)CCSc1ccccc1`, the TGI with MALME-3M melanoma, with T-47D breast, in the assay on IGROV1 ovarian, in the assay with NCI-H23 lung, in the assay on BT-549 breast and in the assay with 786-0 renal was greater than 100 µM in each case. The TGI in the assay on KM12 colon and with SR leukemia was greater than 100 µM throughout.
For `OCCCNc1ncnc2[nH]ncc12`, the TGI with MALME-3M melanoma, in the assay with T-47D breast, in the assay on IGROV1 ovarian, in the assay with NCI-H23 lung, in the assay with BT-549 breast and in the assay with 786-0 renal was greater than 100 µM in each case. The TGI in the assay on KM12 colon and with HOP-92 NSCLC was greater than 100 µM throughout.

For the origin of these results see PubChem BioAssay (NCI).
